Assay results as given in patent US20260216347A1, “Substituted Imidazo-Based Compounds as Ligand Directed Degraders of IRAK3” (Celgene Corporation, priority 2022, published 2026).

Molecular target: T1, IRAK3 (Homo sapiens, UniProt Q9Y616)
T1 construct: IRAK Endogenous HTRF Degradation Assay; endogenous in cells
T1 sequence (Q9Y616 1-596): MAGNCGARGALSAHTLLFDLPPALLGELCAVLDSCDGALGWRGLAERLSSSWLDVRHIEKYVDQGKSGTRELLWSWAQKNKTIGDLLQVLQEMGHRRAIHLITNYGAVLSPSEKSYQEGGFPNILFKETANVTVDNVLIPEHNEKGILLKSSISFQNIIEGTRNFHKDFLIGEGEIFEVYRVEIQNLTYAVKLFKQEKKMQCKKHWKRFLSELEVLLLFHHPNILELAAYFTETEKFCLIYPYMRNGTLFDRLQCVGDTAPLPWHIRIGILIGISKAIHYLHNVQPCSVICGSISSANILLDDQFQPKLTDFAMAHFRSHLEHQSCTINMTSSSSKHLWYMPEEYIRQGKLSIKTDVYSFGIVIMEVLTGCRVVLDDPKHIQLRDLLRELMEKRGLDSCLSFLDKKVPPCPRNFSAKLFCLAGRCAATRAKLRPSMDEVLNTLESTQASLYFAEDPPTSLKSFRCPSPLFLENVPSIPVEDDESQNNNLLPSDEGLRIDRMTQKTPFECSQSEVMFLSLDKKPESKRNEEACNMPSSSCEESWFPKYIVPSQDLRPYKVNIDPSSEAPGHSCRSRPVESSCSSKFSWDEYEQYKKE
Assay: IRAK3 biochemical binding assay (LanthaScreen Eu Kinase Binding, TR-FRET)
Experimental: Example B3. IRAK3 Biochemical Binding Assay
The LanthaScreen® Eu Kinase Binding assay was performed as described by the vendor (ThermoFisher Scientific Waltham, MA). Briefly, 100× solutions of compound were prepared in DMSO via serial dilution of the 10 mM stock solution in a 384-well reagent plate using 3-fold intervals to achieve final concentrations. 1 μL of the compound dilution series were added to the corresponding wells of a 384-well reagent plate containing 32.3 μL of 1× buffer (50 mM HEPES pH 7.4, […], 1 mM EGTA, 0.01% Brij-35). 5 μL of the buffer diluted compounds were transferred to the corresponding wells of a 384-well assay plate. 5 μL of 3× tracer was transferred to each well of the assay plate for a final tracer concentration of 10 nM. Finally, 5 μL of the 3×Eu-Anti-GST and IRAK3 mix was transferred to each well for a final concentration of 2 nM and 10 nM respectively. Reactions were allowed to incubate for 1 hour at room temperature. TR-FRET signal of the interaction (λex340/λem 665/λem 615) was read at room temperature with a delay time of 100 ρs and an integration time of 200 ρs using an Envision plate reader. Background corrected emission signal ratios at each compound concentration were used to calculate percentage of inhibition (% Inhibition). Plots of % Inhibition versus inhibitor concentrations were fit according to a dose-response equation (Eq. 1) to generate IC50 and Hill slope values using Dotmatics software (Dotmatics, Bishops Stortford, Hertfordshire, England).
Using these assays, IC50, Dmax, EC50, and DC50 values of the following compounds were determined. Dmax is defined as the maximum percent degradation achieved and DC50 is the concentration at which 50% degradation is achieved.

SMILES	IC50
Cc1cc(-c2cnc(Nc3cnn([C@H]4CC[C@H](CCN5CCN(c6cccc7c(C8CCC(=O)NC8=O)nn(C)c67)CC5)CC4)c3)c3nccn23)c(F)cc1F (stereo partly drawn) [Compound 117, 3-(7-(4-(2-((trans)-4-(4-((5-(2,4-difluoro-5-methylphenyl)imidazo[1,2-a]pyrazin-8-yl)amino)-1H-pyrazol-1-yl)cyclohexyl)ethyl)piperazin-1-yl)-1-methyl-1H-indazol-3-yl)piperidine-2,6-dione]	1 nM
Cc1cc(-c2cnc(Nc3cnn([C@H]4CCCN(CCN5CCN(c6ccc(C7CCC(=O)NC7=O)cc6)CC5)CC4)c3)c3nccn23)c(F)cc1F (single isomer, unassigned) [Compound 111]	0.05 nM
Cc1cc(-c2cnc(Nc3cnn([C@H]4CC[C@H](CCN5CCC(c6ccc(C7CCC(=O)NC7=O)cc6)CC5)CC4)c3)c3nccn23)c(F)cc1F (stereo partly drawn) [Compound 95, 3-(4-(1-(2-((trans)-4-(4-((5-(2,4-difluoro-5-methylphenyl)imidazo[1,2-a]pyrazin-8-yl)amino)-1H-pyrazol-1-yl)cyclohexyl)ethyl)piperidin-4-yl)phenyl) piperidine-2,6-dione]	15 nM
Cc1cc(-c2ccc(Nc3cnn([C@H]4CC[C@@H](CCN5CCN(c6ccc(C7CCC(=O)NC7=O)cc6)CC5)CC4)c3)c3nccn23)c(F)cc1F (stereo partly drawn) [Compound 103]	2 nM
Cc1cc(-c2cnc(Nc3cnn([C@H]4C[C@@H](CCN5CCN(c6ccc(C7CCC(=O)NC7=O)cc6)CC5)C4)c3)c3nccn23)c(F)cc1F (stereo partly drawn) [Compound 96, 3-(4-(4-(2-((cis)-3-(4-((5-(2,4-difluoro-5-methylphenyl)imidazo[1,2-a]pyrazin-8-yl)amino)-1H-pyrazol-1-yl)cyclobutyl)ethyl)piperazin-1-yl)phenyl)piperidine-2,6-dione]	0.22 nM
CN1CCOc2cc(F)c(-c3cnc(Nc4cnn(C5CCN(CCN6CCN(c7ccc(C8CCC(=O)NC8=O)cc7)CC6)CC5)c4)c4nccn34)cc21 (stereo not drawn) [Compound 98, 3-(4-(4-(2-(4-(4-((5-(7-fluoro-4-methyl-3,4-dihydro-2H-benzo[b][1,4]oxazin-6-yl)imidazo[1,2-a]pyrazin-8-yl)amino)-1H-pyrazol-1-yl)piperidin-1-yl)ethyl)piperazin-1-yl)phenyl) piperidine-2,6-dione]	0.08 nM
O=C1CCC(c2ccc(N3CCN(CCN4CCC(n5cc(Nc6ncc(-c7cnn(C8CC8)c7)n7ccnc67)cn5)CC4)CC3)cc2)C(=O)N1 (stereo not drawn) [Compound 119, 3-(4-(4-(2-(4-(4-((5-(1-cyclopropyl-1H-pyrazol-4-yl)imidazo[1,2-a]pyrazin-8-yl)amino)-1H-pyrazol-1-yl)piperidin-1-yl)ethyl)piperazin-1-yl)phenyl) piperidine-2,6-dione]	1.7 nM
Cc1cc(-c2cnc(Nc3cnn(C4CCN(CCN5CCN(c6ccc(-n7ccc(=O)[nH]c7=O)cc6)CC5)CC4)c3)c3nccn23)c(F)cc1F [Compound 102, 1-(4-(4-(2-(4-(4-((5-(2,4-difluoro-5-methylphenyl)imdazo [1,2-a]pyrazin-8-yl)amino)-1H-pyrazol-1-yl)piperidin-1-yl)ethyl)piperazin-1-yl)phenyl)pyrimidine-2,4(1H,3H)-dione]	0.8 nM
Cn1nc(C2CCC(=O)NC2=O)c2ccc(N3CCN(CCN4CCC(n5cc(Nc6ncc(C7CC7)n7ccnc67)cn5)CC4)CC3)cc21 (stereo not drawn) [Compound 115, 3-(6-(4-(2-(4-(4-((5-cyclopropylimidazo[1,2-a]pyrazin-8-yl)amino)-1H-pyrazol-1-yl)piperidin-1-yl)ethyl)piperazin-1-yl)-1-methyl-1H-indazol-3-yl)piperidine-2,6-dione]	25 nM
Cc1cc(-c2cnc(Nc3cnn(C4CCN(CCN5CCC(n6cc(C7CCC(=O)NC7=O)cn6)CC5)CC4)c3)c3nccn23)c(F)cc1F (stereo not drawn) [Compound 109, 3-(1-(1-(2-(4-(4-((5-(2,4-difluoro-5-methylphenyl)imdazo [1,2-a]pyrazin-8-yl)amino)-1H-pyrazol-1-yl)piperidin-1-yl)ethyl)piperidin-4-yl)-1H-pyrazol-4-yl)piperidine-2,6-dione]	0.26 nM
CS(=O)(=O)c1cccc(-c2cnc(Nc3cnn(C4CCN(CCN5CCN(c6ccc(C7CCC(=O)NC7=O)cc6)CC5)CC4)c3)c3nccn23)c1 (stereo not drawn) [Compound 86, 3-(4-(4-(2-(4-(4-((5-(3-(methylsulfonyl)phenyl)imidazo[1,2-a]pyrazin-8-yl)amino)-1H-pyrazol-1-yl)piperidin-1-yl)ethyl)piperazin-1-yl)phenyl) piperidine-2,6-dione]	380 nM
O=C1CCC(c2ccc(N3CCN(CC[C@H]4CC[C@H](n5cc(Nc6ncc(C78CCCC7C8)n7ccnc67)cn5)CC4)CC3)cc2)C(=O)N1 (stereo partly drawn) [Compound 100]	4 nM
Cc1cc(-c2cnc(Nc3cnn([C@H]4C[C@H](CN5CCN(c6ccc(C7CCC(=O)NC7=O)cc6)CC5)C4)c3)c3nccn23)c(F)cc1F (stereo partly drawn) [Compound 99]	0.44 nM
Cn1nc(C2CCC(=O)NC2=O)c2cccc(N3CCN(CCN4CCC(n5cc(Nc6ncc(C7CC7)n7ccnc67)cn5)CC4)CC3)c21 (stereo not drawn) [Compound 113, 3-(7-(4-(2-(4-(4-((5-cyclopropylimidazo[1,2-a]pyrazin-8-yl)amino)-1H-pyrazol-1-yl)piperidin-1-yl)ethyl)piperazin-1-yl)-1-methyl-1H-indazol-3-yl)piperidine-2,6-dione]	3.2 nM
Cc1cc(-c2cnc(Nc3cnn([C@H]4CC[C@H](CCN5CC6(C5)CN(c5ccc(C7CCC(=O)NC7=O)cc5)C6)CC4)c3)c3nccn23)c(F)cc1F (stereo partly drawn) [Compound 104]	0.3 nM
Cc1cc(-c2cnc(Nc3cnn(C4CCN(CCN5CC6(C5)CN(c5ccc(C7CCC(=O)NC7=O)cc5)C6)CC4)c3)c3nccn23)c(F)cc1F (stereo not drawn) [Compound 97, 3-(4-(6-(2-(4-(4-((5-(2,4-difluoro-5-methylphenyl)imdazo [1,2-a]pyrazin-8-yl)amino)-1H-pyrazol-1-yl)piperidin-1-yl)ethyl)-2,6-diazaspiro[3.3]heptan-2-yl)phenyl) piperidine-2,6-dione]	1.3 nM
O=C1CCC(c2ccc(N3CCN(CCN4CCC(n5cc(Nc6ncc(-c7cnn8c7CCCC8)n7ccnc67)cn5)CC4)CC3)cc2)C(=O)N1 (stereo not drawn) [Compound 114, 3-(4-(4-(2-(4-(4-((5-(4,5,6,7-tetrahydropyrazolo[1,5-a]pyridin-3-yl)imidazo[1,2-a]pyrazin-8-y1)amino)-1H-pyrazol-1-yl)piperidin-1-yl)ethyl)piperazin-1-y1)phenyl)piperidine-2,6-dione]	0.92 nM
O=C1CCC(c2ccc(N3CCN(CCN4CCC(n5cc(Nc6ncc(-c7ccc8c(c7)CC8)n7ccnc67)cn5)CC4)CC3)cc2)C(=O)N1 (stereo not drawn) [Compound 85, 3-(4-(4-(2-(4-(4-((5-(bicyclo[4.2.0]octa-1(6),2,4-trien-3-yl)imidazo[1,2-a]pyrazin-8-yl)amino)-1H-pyrazol-1-yl)piperidin-1-yl)ethyl)piperazin-1-yl)phenyl) piperidine-2,6-dione]	25 nM
COc1ccc(-c2cnc(Nc3cnn(C4CCN(CCN5CCN(c6ccc(C7CCC(=O)NC7=O)cc6)CC5)CC4)c3)c3nccn23)cc1 (stereo not drawn) [Compound 87, 3-(4-(4-(2-(4-(4-((5-(4-methoxyphenyl)imidazo[1,2-a]pyrazin-8-yl)amino)-1H-pyrazol-1-yl)piperidin-1-yl)ethyl)piperazin-1-yl)phenyl) piperidine-2,6-dione]	4 nM
Cc1cc(-c2cnc(Nc3cnn([C@@H]4CCCN(CCN5CCN(c6ccc(C7CCC(=O)NC7=O)cc6)CC5)CC4)c3)c3nccn23)c(F)cc1F (single isomer, unassigned) [Compound 112]	0.48 nM
Cc1cc(-c2cnc(Nc3cnn(C4CCN(CCN5CCN(c6ccc(-n7cc(F)c(=O)[nH]c7=O)cc6)CC5)CC4)c3)c3nccn23)c(F)cc1F [Compound 110, 1-(4-(4-(2-(4-(4-((5-(2,4-difluoro-5-methylphenyl)imdazo [1,2-a]pyrazin-8-yl)amino)-1H-pyrazol-1-yl)piperidin-1-yl)ethyl)piperazin-1-yl)phenyl)-5-fluoropyrimidine-2,4(1H,3H)-dione]	0.86 nM
